In patent US8257928B2, “Methods for predicting and treating tumors resistant to drug, immunotherapy and radiation” (The Regents of the University of California, priority 2008, dated 2012):

System: HMT3522 T4-2 cells
Assay: Affymetrix U133A 2.0 gene expression profiling of T4-2 N-CoR2 cells vs T4-2 vector cells grown on rBM;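 note: total RNA converted to biotin-labelled cRNA, hybridized to arrays and confocally scanned, probe set intensities computed by GC-RMA, genes kept if flagged present in at least 2 of 8 samples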
Assay type: cell-based, human
Details: T4-2 N-CoR2 cells on rBM, 6 days
Description: HMT3522 T4-2 cells were derived from an epidermal growth factor (EGF)-dependent breast epithelial HMT3522 S-1 cells and an EGF-independent HMT3522 S-2 cells that spontaneously became malignant when injected into nude mice. HMT3522 T4-2 cells were propagated as monolayers on type I collagen-coated plastic surface in chemically defined medium consisting of DMEM:F12 medium (Invitrogen GIBCO), containing 250 ng/ml insulin (Boehringer Mannheim), 10 μg/ml transferrin (Sigma, St. Louis, Mo.), 2.6 ng/ml sodium splenetic (Collaborative Research), 10^−10 M estradiol (Sigma), 1.4×10^−6 M hydrocortisone (Collaborative Research), and 5 μg/ml prolactin (Sigma), as described in J. Cell Biol. 137:231-245 (1997).
Amphotropic retrovirus was produced in modified 293 cells or in Phoenix ampho cells (provided by Professor G. Nolan, Stanford Medical Center) with packaging vectors pCgp and pVSVG to boost viral titer. […] Sorted cells were expanded again in the presence of tetracycline.
To increase the yield of RNA for transcriptional profiling experiments, we grew 2×10^5 cells on top of rBM in a 60-mm tissue culture dish. As described, cells grown on top of rBM formed 3D cellular aggregates similar to those embedded in rBM. […] The cultures were maintained for 6 days before the collection of RNA samples.
Total RNA was extracted from monolayer culture or 3D culture by a modified TR1 reagent procedure as described (Biotechniques 19:942-945 (1995)) and purified using an RNeasy Mini Kit (Qiagen). Gene expression analysis was performed on an Affymetrix Human Genome U133A 2.0 GeneChip platform containing 22,283 probes according to the manufacturer's protocol (Affymetrix). Twenty micrograms of total RNA from each sample was processed to produce biotinylated cRNA targets. After hybridization, washing and staining arrays were scanned using a confocal scanner (Affymetrix). The hybridization intensity data was processed using the GeneChip Operating software (Affymetrix). Affymetrix .cel files (probe intensity files) were processed with ArrayAssist Lite (v3.4, Stratagene). The files were imported and processed with the GC-RMA algorithm to yield probe set intensities and additionally, Affymetrix Preset, Absent, Marginal flags were computed. These values were exported in .chp files, which were subsequently imported into the Partek Genomics Suite software (v6.2, Partek). The genes were filtered based on the Affymetrix P/A/M flags to retain only those genes that were present in at least 2 of the 8 samples.

## N-CoR2
  MEAN INTENSITY (N) 33304_at ISG20: 482.12
  MEAN INTENSITY (N) 38037_at HBEGF: 361.24
  MEAN INTENSITY (N) 38043_at FAM3A: 68.61
  MEAN INTENSITY (N) 53991_at DENND2A: 20.60
  MEAN INTENSITY (N) 200696_s_at GSN: 914.82
  MEAN INTENSITY (N) 200821_at LAMP2: 347.91
  MEAN INTENSITY (N) 200914_x_at KTN1: 343.43
  MEAN INTENSITY (N) 201007_at HADHB: 7136.54
  MEAN INTENSITY (N) 201132_at HNRPH2: 143.04
  MEAN INTENSITY (N) 201215_at PLS3: 411.68
  MEAN INTENSITY (N) 201472_at VBP1: 161.81
  MEAN INTENSITY (N) 201540_at FHL1: 1059.88
  MEAN INTENSITY (N) 201661_s_at ACSL3: 24.61
  MEAN INTENSITY (N) 201864_at GDI1: 358.31
  MEAN INTENSITY (N) 201865_x_at NR3C1: 332.55
  MEAN INTENSITY (N) 201887_at IL13RA1: 93.97
  MEAN INTENSITY (N) 201917_s_at SLC25A36: 28.72
  MEAN INTENSITY (N) 201996_s_at SPEN: 72.47
  MEAN INTENSITY (N) 202169_s_at AASDIIPPT: 25.30
  MEAN INTENSITY (N) 202277_at SPTLC1: 110.99
  MEAN INTENSITY (N) 202351_at ITGAV: 510.51
  MEAN INTENSITY (N) 202371_at TCEAL4: 269.43
  MEAN INTENSITY (N) 202376_at SERPINA3: 196.67
  MEAN INTENSITY (N) 202378_s_at LEPROT: 228.55
  MEAN INTENSITY (N) 202411_at IFI27: 155.11
  MEAN INTENSITY (N) 202439_s_at IDS: 270.52
  MEAN INTENSITY (N) 202602_s_at HTATSF1: 79.70
  MEAN INTENSITY (N) 202829_s_at SYBL1: 38.13
  MEAN INTENSITY (N) 202923_s_at GCLC: 167.13
  MEAN INTENSITY (N) 203042_at LAMP2: 638.66
  MEAN INTENSITY (N) 203156_at AKAP11: 21.24
  MEAN INTENSITY (N) 203186_s_at S100A4: 227.62
  MEAN INTENSITY (N) 203303_at DYNLT3: 44.35
  MEAN INTENSITY (N) 203453_at SCNN1A: 142.26
  MEAN INTENSITY (N) 203780_at EVA1: 133.29
  MEAN INTENSITY (N) 203821_at HBEGF: 977.38
  MEAN INTENSITY (N) 203917_at CXADR: 71.25
  MEAN INTENSITY (N) 204020_at PURA: 200.32
  MEAN INTENSITY (N) 204097_s_at RBMX2: 21.99
  MEAN INTENSITY (N) 204343_at ABCA3: 38.38
  MEAN INTENSITY (N) 204351_at S100P: 180.28
  MEAN INTENSITY (N) 204533_at CXCL10: 24.04
  MEAN INTENSITY (N) 204584_at L1CAM: 327.45
  MEAN INTENSITY (N) 204602_at DKK1: 259.47
  MEAN INTENSITY (N) 204881_s_at UGCG: 120.86
  MEAN INTENSITY (N) 204976_s_at AMMECR1: 36.28
  MEAN INTENSITY (N) 204981_at SLC22A18: 205.14
  MEAN INTENSITY (N) 205097_at SLC26A2: 85.76
  MEAN INTENSITY (N) 205128_x_at PTGS1: 125.00
  MEAN INTENSITY (N) 205220_at GPR109B: 645.95
  MEAN INTENSITY (N) 205315_s_at SNTB2: 87.78
  MEAN INTENSITY (N) 205363_at BBOX1: 120.76
  MEAN INTENSITY (N) 205428_s_at CALB2: 143.13
  MEAN INTENSITY (N) 205569_at LAMP3: 64.51
  MEAN INTENSITY (N) 205595_at DSG3: 177.64
  MEAN INTENSITY (N) 205623_at ALDH3A1: 77.90
  MEAN INTENSITY (N) 205709_s_at CDS1: 42.93
  MEAN INTENSITY (N) 205767_at EREG: 183.71
  MEAN INTENSITY (N) 205809_s_at WASL: 77.44
  MEAN INTENSITY (N) 205900_at KRT1: 95.82
  MEAN INTENSITY (N) 206295_at IL18: 188.27
  MEAN INTENSITY (N) 206342_x_at IDS: 267.58
  MEAN INTENSITY (N) 206645_s_at NR0B1: 107.59
  MEAN INTENSITY (N) 207719_x_at CEP170: 21.69
  MEAN INTENSITY (N) 207941_s_at RNPC2: 78.71
  MEAN INTENSITY (N) 208241_at NRG1: 18.19
  MEAN INTENSITY (N) 209022_at STAG2: 24.13
  MEAN INTENSITY (N) 209028_s_at ABI1: 109.59
  MEAN INTENSITY (N) 209194_at CETN2: 187.44
  MEAN INTENSITY (N) 209289_at NFIB: 64.90
  MEAN INTENSITY (N) 209726_at CA11: 105.08
  MEAN INTENSITY (N) 209792_s_at KLK10: 505.96
  MEAN INTENSITY (N) 210367_s_at PTGES: 246.35
  MEAN INTENSITY (N) 210387_at HIST1H2BG: 579.17
  MEAN INTENSITY (N) 211122_s_at CXCL11: 12.87
  MEAN INTENSITY (N) 211343_s_at COL13A1: 88.75
  MEAN INTENSITY (N) 211612_s_at IL13RA1: 104.96
  MEAN INTENSITY (N) 211671_s_at NR3C1: 263.10
  MEAN INTENSITY (N) 212007_at UBXD2: 117.00
  MEAN INTENSITY (N) 212221_x_at IDS: 571.11
  MEAN INTENSITY (N) 212223_at IDS: 186.65
  MEAN INTENSITY (N) 212414_s_at SEPT6: 68.28
  MEAN INTENSITY (N) 212415_at SEPT6: 11.03
  MEAN INTENSITY (N) 212510_at GPD1L: 22.53
  MEAN INTENSITY (N) 212531_at LCN2: 420.45
  MEAN INTENSITY (N) 212605_s_at: 41.36
  MEAN INTENSITY (N) 212616_at CHD9: 17.34
  MEAN INTENSITY (N) 212622_at TMEM41B: 26.02
  MEAN INTENSITY (N) 212640_at PTPLB: 459.88
  MEAN INTENSITY (N) 213016_at: 34.12
  MEAN INTENSITY (N) 213083_at SLC35D2: 234.84
  MEAN INTENSITY (N) 213135_at TIAM1: 24.42
  MEAN INTENSITY (N) 213229_at DICER1: 464.53
  MEAN INTENSITY (N) 213294_at: 18.29
  MEAN INTENSITY (N) 213593_s_at TRA2A: 34.25
  MEAN INTENSITY (N) 213729_at PRPF40A: 15.54
  MEAN INTENSITY (N) 214022_s_at IFITM1: 4135.74
  MEAN INTENSITY (N) 214112_s_at CXorf40A: 479.14
  MEAN INTENSITY (N) 214718_at GATAD1: 33.09
  MEAN INTENSITY (N) 214722_at NOTCH2NL: 159.38
  MEAN INTENSITY (N) 215206_at EXT1: 106.70
  MEAN INTENSITY (N) 215245_x_at FMR1: 78.43
  MEAN INTENSITY (N) 215813_s_at PTGS1: 76.88
  MEAN INTENSITY (N) 216095_x_at MTMR1: 318.26
  MEAN INTENSITY (N) 216942_s_at CD58: 34.65
  MEAN INTENSITY (N) 217388_s_at KYNU: 634.02
  MEAN INTENSITY (N) 217813_s_at SPIN: 59.32
  MEAN INTENSITY (N) 217947_at CMTM6: 498.31
  MEAN INTENSITY (N) 217948_at: 706.40
  MEAN INTENSITY (N) 217975_at WBP5: 441.28
  MEAN INTENSITY (N) 218053_at PRPF40A: 132.43
  MEAN INTENSITY (N) 218085_at CHMP5: 84.03
  MEAN INTENSITY (N) 218086_at NPDC1: 330.55
  MEAN INTENSITY (N) 218163_at MCTS1: 521.74
  MEAN INTENSITY (N) 218237_s_at SLC38A1: 608.07
  MEAN INTENSITY (N) 218668_s_at RAP2C: 54.25
  MEAN INTENSITY (N) 218986_s_at FLJ20035: 29.34
  MEAN INTENSITY (N) 219001_s_at WDR32: 26.25
  MEAN INTENSITY (N) 219010_at C1orf106: 585.64
  MEAN INTENSITY (N) 219045_at RHOF: 540.25
  MEAN INTENSITY (N) 219351_at TRAPPC2: 71.62
  MEAN INTENSITY (N) 219356_s_at CHMP5: 242.88
  MEAN INTENSITY (N) 219956_at GALNT6: 147.85
  MEAN INTENSITY (N) 219995_s_at FLJ13841: 795.33
  MEAN INTENSITY (N) 221553_at RP11-217II1.1: 90.64
  MEAN INTENSITY (N) 221581_s_at LAT2: 163.24
  MEAN INTENSITY (N) 221766_s_at FAM46A: 25.10
  MEAN INTENSITY (N) 221829_s_at TNPO1: 213.54
  MEAN INTENSITY (N) 221841_s_at KLF4: 264.55
  MEAN INTENSITY (N) 221844_x_at: 96.74
  MEAN INTENSITY (N) 222242_s_at KLK5: 26.38
  MEAN INTENSITY (N) 222266_at C19orf2: 25.69
